Patent publication US8299214B2 (priority 2006, dated 2012)
Like-named read-outs stand apart in the source and are kept apart here. Residues, ends and D or L forms follow the SMILES beside them. No end group written: not given here. *: point of attachment. Stearoyl = CCCCCCCCCCCCCCCCCC(=O)*

How the values were obtained:
[1] = test system: influenza virus A/Puerto Rico/8/34 strain (H1N1)
[2] = test system: influenza virus A/Aichi/2/68 strain (H3N2)
[3] = test system: hemagglutinin (immobilized H3N2); assay: Biacore binding of synthetic peptides to H3N2 immobilized on Sensor Chip CM5; set-up: species or system influenza virus type A A/Wuhan/359/95 (H3N2); conditions: for order of binding strength to hemagglutinin: Biacore; for relative value of resonance (amount of binding) with A-1 taken as 1: peptide concentration 200 μM
[4] = test system: hemagglutinin (HA), ether extract of type A subtype H3 A/Wuhan/359/95 (H3N2); assay: Phage ELISA, binding of peptide-presenting phages to immobilized hemagglutinin (H3N2); set-up: species or system influenza virus type A A/Wuhan/359/95 (H3N2)
[5] = target: hemagglutinin (HA), ether extract of type A subtype H1 A/PR/8/34 (H1N1) (Influenza A virus, UniProt P03452)
[6] = read-out: IC50(μM) H1, Table 4, MDCK cells, plaque assay, H1N1
[7] = read-out: IC50(μM) H3, Table 4, MDCK cells, plaque assay, H3N2
[8] = influenza virus A/Puerto Rico/8/34 strain
[9] = influenza virus A/Aichi/2/68 strain

hemagglutinin (HA), ether extract of type A subtype H1 A/PR/8/34 (H1N1), sequence (P03452 18-565): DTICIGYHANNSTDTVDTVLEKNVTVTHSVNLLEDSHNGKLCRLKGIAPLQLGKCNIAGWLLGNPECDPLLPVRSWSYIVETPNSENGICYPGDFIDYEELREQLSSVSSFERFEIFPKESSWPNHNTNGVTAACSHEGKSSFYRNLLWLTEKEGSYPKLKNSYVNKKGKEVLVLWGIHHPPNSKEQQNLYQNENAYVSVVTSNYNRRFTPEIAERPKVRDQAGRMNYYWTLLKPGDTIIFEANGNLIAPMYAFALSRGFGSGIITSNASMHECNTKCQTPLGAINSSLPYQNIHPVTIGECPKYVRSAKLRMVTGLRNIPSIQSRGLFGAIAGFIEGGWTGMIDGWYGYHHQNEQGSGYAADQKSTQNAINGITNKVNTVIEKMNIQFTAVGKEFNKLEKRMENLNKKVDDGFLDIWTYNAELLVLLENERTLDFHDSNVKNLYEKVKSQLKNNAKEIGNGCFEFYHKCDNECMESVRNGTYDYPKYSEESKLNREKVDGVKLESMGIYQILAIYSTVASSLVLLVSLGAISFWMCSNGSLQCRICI

Row | Compound | inhibition of H1N1 influenza virus infection (in words) ([1]; MDCK cells, plaque assay) | inhibition of H3N2 influenza virus infection (in words) ([2]; MDCK cells, plaque assay) | IC50 [1, 8] [µM] | IC50 [2, 9] [µM] | also measured
1 | CCCCCCCCCCCCCCCCCC(=O)N[C@@H](C)C(=O)N[C@@H](CCCNC(=N)N)C(=O)N[C@@H](CC(C)C)C(=O)N1CCC[C@H]1C(=O)N[C@@H](CCCNC(=N)N)C(=O)N[C@H](C(N)=O)[C@@H](C)O [C18-s2(1-6), C18-ARLPRT] (Stearoyl-ARLPRT-NH2) | more strongly than C18-S2 peptide | as strongly as, or more strongly than, C18-S2 peptide | – | – | IC50 [1, 6]: 3.5 µM; IC50 [2, 7]: 5 µM
2 | CCCCCCCCCCCCCCCCCC(=O)N[C@@H](C)C(=O)N[C@@H](CCCNC(=N)N)C(=O)N[C@@H](CC(C)C)C(=O)N1CCC[C@H]1C(N)=O [C18-s2(1-4), C18-ARLP] (Stearoyl-ARLP-NH2) | more strongly than C18-S2 peptide | as strongly as, or more strongly than, C18-S2 peptide | 0.9 | 21 | –
3 | ARLPPTMVRPNGPQP-NH2 [e-1] | – | – | – | – | order of binding strength to hemagglutinin [3]: s-2>e-1>A-1>pVIII; relative value of resonance (amount of binding) with A-1 taken as 1 [3]: 1.2 fold
4 | AEGDDPAKAAFDSLQ-NH2 [pVIII, reference compound] | – | – | – | – | order of binding strength to hemagglutinin [3]: s-2>e-1>A-1>pVIII
5 | CCCCCCCCCCCCCCCCCC(=O)N[C@@H](C)C(=O)N[C@@H](CCCNC(=N)N)C(=O)N[C@@H](CC(C)C)C(N)=O [C18-s2(1-3), C18-ARL] | unable to inhibit infection | unable to inhibit infection | > 100 | > 100 | –
6 | ARLPRTMVHPKPAQP-NH2 [s-2] | – | – | – | – | binding activity to hemagglutinin relative to A-1 (A-1 taken as 1) [4]: about 3 fold; order of binding strength to hemagglutinin [3]: s-2>e-1>A-1>pVIII; relative value of resonance (amount of binding) with A-1 taken as 1 [3]: 2.1 fold; binding activity to hemagglutinin relative to A-1 (A-1 taken as 1) [5]: about 3 fold
7 | CCCCCCCCCCCCCCCCCC(=O)N[C@@H](CC(C)C)C(=O)N1CCC[C@H]1C(=O)N[C@@H](CCCNC(=N)N)C(=O)N[C@H](C(=O)N[C@@H](CCSC)C(=O)N[C@H](C(N)=O)C(C)C)[C@@H](C)O [C18-s2(3-8), C18-LPRTMV] (Stearoyl-LPRTMV-NH2) | – | – | > 100 | – | –
8 | CCCCCCCCCCCCCCCCCC(=O)N[C@@H](C)C(=O)N[C@@H](CCCNC(=N)N)C(=O)N[C@@H](CC(C)C)C(=O)N1CCC[C@H]1C(=O)N[C@@H](CCCNC(=N)N)C(=O)N[C@H](C(=O)N[C@@H](CCSC)C(=O)N[C@H](C(=O)N[C@@H](Cc1c[nH]cn1)C(=O)N1CCC[C@H]1C(=O)N[C@@H](CCCCN)C(=O)N1CCC[C@H]1C(=O)N[C@@H](C)C(=O)N[C@@H](CCC(N)=O)C(=O)N1CCC[C@H]1C(N)=O)C(C)C)[C@@H](C)O [C18-s2, C18-ARLPRTMVHPKPAQP] (Stearoyl-ARLPRTMVHPKPAQP-NH2) | – | – | 10 | 8.2 | –
9 | CCCCCCCCCCCCCCCCCC(=O)N[C@@H](CCCNC(=N)N)C(=O)N[C@H](C(=O)N[C@@H](CCSC)C(=O)N[C@H](C(=O)N[C@@H](Cc1c[nH]cn1)C(=O)N1CCC[C@H]1C(=O)N[C@@H](CCCCN)C(N)=O)C(C)C)[C@@H](C)O [C18-s2(5-11), C18-RTMVHPK] (Stearoyl-RTMVHPK-NH2) | – | – | 11 | > 100 | –
10 | CCCCCCCCCCCCCCCCCC(=O)N[C@@H](C)C(=O)N[C@@H](CCCNC(=N)N)C(=O)N[C@@H](CC(C)C)C(=O)N[C@@H](C)C(N)=O [C18-s2(1-4)P4A, C18-ARLA] (Stearoyl-ARLA-NH2) | – | – | > 100 | > 100 | –
11 | CCCCCCCCCCCCCCCCCC(=O)N[C@@H](C)C(=O)N[C@@H](CCCNC(=N)N)C(=O)N[C@@H](CC(C)C)C(=O)N1CCC[C@H]1C(=O)N[C@@H](CCCNC(=N)N)C(N)=O [C18-s2(1-5), C18-ARLPR] (Stearoyl-ARLPR-NH2) | more strongly than C18-S2 peptide | as strongly as, or more strongly than, C18-S2 peptide | – | – | IC50 [1, 6]: 3.1 µM; IC50 ([1]; read-out: IC50(μM) H1, Table 5, MDCK cells, plaque assay, H1N1): 0.35 µM; IC50 [2, 7]: 3 µM; IC50 ([2]; read-out: IC50(μM) H3, Table 5, MDCK cells, plaque assay, H3N2): 1.55 µM
12 | CCCCCCCCCCCCCCCCCC(=O)N[C@H](C(=O)N[C@@H](CCSC)C(=O)N[C@H](C(=O)N[C@@H](CCCNC(=N)N)C(=O)N1CCC[C@H]1C(=O)N[C@@H](CC(C)C)C(=O)N[C@@H](CCCNC(=N)N)C(=O)N[C@@H](C)C(N)=O)[C@@H](C)O)C(C)C [C18-s2(r1-8), C18-VMTRPLRA] (Stearoyl-VMTRPLRA-NH2) | – | – | 93 | 226 | –
13 | CCCCCCCCCCCCCCCCCC(=O)N[C@@H](C)C(=O)N[C@@H](CCCNC(=N)N)C(N)=O [C18-s2(1-2), C18-AR] (Stearoyl-Ala-Arg-NH2) | unable to inhibit infection | unable to inhibit infection | – | – | IC50 [1, 6]: > 100 µM; IC50 [2, 7]: > 100 µM
14 | CCCCCCCCCCCCCCCCCC(=O)N[C@@H](CCCNC(=N)N)C(=O)N[C@@H](CC(C)C)C(=O)N1CCC[C@H]1C(=O)N[C@@H](CCCNC(=N)N)C(=O)N[C@H](C(=O)N[C@@H](CCSC)C(=O)N[C@H](C(N)=O)C(C)C)[C@@H](C)O [C18-s2(2-8), C18-RLPRTMV] (Stearoyl-RLPRTMV-NH2) | as strongly as, or more strongly than, C18-S2 peptide | – | – | – | IC50 [1, 6]: 9.2 µM; IC50 [2, 7]: > 100 µM
15 | CCCCCCCCCCCCCCCCCC(=O)N[C@@H](CCCNC(=N)N)C(=O)N1CCC[C@H]1C(=O)N[C@@H](CC(C)C)C(=O)N[C@@H](CCCNC(=N)N)C(=O)N[C@@H](C)C(N)=O [C18-s2(r1-5), C18-RPLRA] (Stearoyl-RPLRA-NH2) | more strongly than C18-s2 (r1-8) | more strongly than C18-s2 (r1-8) | 0.55 | 0.94 | –
16 | CCCCCCCCCCCCCCCCCC(=O)N[C@@H](C)C(=O)N[C@@H](CCCNC(=N)N)C(=O)N[C@@H](CC(C)C)C(=O)N1CCC[C@H]1C(=O)N[C@@H](CCCNC(=N)N)C(=O)N[C@H](C(=O)N[C@@H](CCSC)C(=O)N[C@H](C(N)=O)C(C)C)[C@@H](C)O [C18-s2(1-8), C18-ARLPRTMV] (Stearoyl-ARLPRTMV-NH2) | more strongly than C18-S2 peptide | as strongly as, or more strongly than, C18-S2 peptide | – | – | IC50 [1, 6]: 2.4 µM; IC50 [2, 7]: 1.4 µM
17 | CCCCCCCCCCCCCCCCCC(=O)N1CCC[C@H]1C(=O)N[C@@H](CC(C)C)C(=O)N[C@@H](CCCNC(=N)N)C(=O)N[C@@H](C)C(N)=O [C18-s2(r1-4), C18-PLRA] (Stearoyl-PLRA-NH2) | more strongly than C18-s2 (r1-8) | more strongly than C18-s2 (r1-8) | 0.41 | 14 | –
18 | CCCCCCCCCCCCCCCCCC(=O)N[C@@H](C)C(=O)N[C@@H](CCCNC(=N)N)C(=O)N[C@@H](CC(C)C)C(=O)N[C@@H](CO)C(=O)N1CCC[C@H]1C(=O)N[C@H](C(=O)N[C@@H](CCSC)C(=O)N[C@H](C(=O)N[C@@H](Cc1c[nH]cn1)C(=O)N1CCC[C@H]1C(=O)N[C@@H](CC(N)=O)C(=O)NCC(=O)N[C@@H](C)C(=O)N[C@@H](CCC(N)=O)C(=O)N1CCC[C@H]1C(N)=O)C(C)C)[C@@H](C)O [C18-A1, C18-ARLSPTMVHPNGAQP, reference compound] (Stearoyl-ARLSPTMVHPNGAQP-NH2) | – | – | 195 | 365 | –
19 | CCCCCCCCCCCCCCCCCC(=O)N[C@H](C(=O)N[C@@H](Cc1c[nH]cn1)C(=O)N1CCC[C@H]1C(=O)N[C@@H](CCCCN)C(=O)N1CCC[C@H]1C(=O)N[C@@H](C)C(=O)N[C@@H](CCC(N)=O)C(=O)N1CCC[C@H]1C(N)=O)C(C)C [C18-s2(8-15), C18-VHPKPAQP] (Stearoyl-VHPKPAQP-NH2) | – | – | 59 | 10.5 | –
20 | CCCCCCCCCCCCCCCCCC(=O)N[C@@H](C)C(=O)N[C@@H](CCCNC(=N)N)C(=O)N[C@@H](CC(C)C)C(=O)N1CCC[C@H]1C(=O)N[C@@H](CCCNC(=N)N)C(=O)N[C@H](C(=O)N[C@@H](CCSC)C(N)=O)[C@@H](C)O [C18-s2(1-7), C18-ARLPRTM] (Stearoyl-ARLPRTM-NH2) | more strongly than C18-S2 peptide | as strongly as, or more strongly than, C18-S2 peptide | – | – | IC50 [1, 6]: 7.1 µM; IC50 [2, 7]: 9.1 µM
21 | CCCCCCCCCCCCCCCCCC(=O)N1CCC[C@H]1C(=O)N[C@@H](CCCNC(=N)N)C(=O)N[C@H](C(=O)N[C@@H](CCSC)C(=O)N[C@H](C(N)=O)C(C)C)[C@@H](C)O [C18-s2(4-8), C18-PRTMV] (Stearoyl-PRTMV-NH2) | – | – | > 100 | – | –
